Laboratory results: US8501911B2, “Methods of reducing inflammation and mucus hypersecretion” (Biomarck Pharmaceuticals, Ltd, priority 1999, dated 2013)
Where “and” joins values, the source holds several entries; their conditions need not be identical. Identical values can stand only once. Residues, ends and D or L forms follow the SMILES beside them. *: point of attachment. Myristoyl = CCCCCCCCCCCCCC(=O)*

How the values were obtained:
[1] = system: MARCKS-related mucus secretion; test: Inhibition of MARCKS-related mucus (mucin) secretion, Table 1; type: cell-based; conditions: at 100 μM of test peptide
[2] = system: NHBE cells; test: PMA+8-Br-cGMP-induced mucin secretion from NHBE cells (ELISA); type: cell-based, human; conditions: for Mucin secretion as % of control: 15 min preincubation, then PMA 100 nM+8-Br-cGMP 1 μM 15 min (Results-I-2B-1); for Mucin secretion level relative to media control: pre- and co-incubation with 100 nM PMA+1 μM 8-Br-cGMP (Results-M-1A/M-3A)
Outline: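 NHBE cells were preincubated 15 min with MANS or RNS peptide (1-100 μM), fostriecin or okadaic acid (500 nM), or treated 3 days with 5 μM antisense/control oligonucleotide, then stimulated with PMA (100 nM)+8-Br-cGMP (1 μM) for 15 min. Apical mucin measured by ELISA (17Q2 antibody); test/base-line ratio reported as percent of medium control.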

[3] = system: NHBE cells; test: UTP-induced mucin secretion from NHBE cells (ELISA); type: cell-based, human; conditions: for Mucin secretion, % of control levels / Mucin secretion as percent of control: 15 min preincubation; for Mucin secretion, % of control levels: co-incubation with 0.1 mM UTP 45 min; for Mucin secretion as percent of control: then UTP 100 μM 2 h
Procedure: In Results-I-1D, NHBE cells were preincubated with the indicated inhibitor for 15 min and then stimulated with 100 μM UTP for 2 h. Secreted mucin in response to the treatment was collected and assayed by ELISA. Data are presented as mean±S.E. (n=6 at each point).
UTP is a well defined pathophysiologically relevant mucin secretagogue. Lethem ct al., Am. J. Respir. Cell Mol. Biol. 9, 315-322 (1993). […] To determine whether PKC and PKG were involved in regulation of mucin secretion in response to a pathophysiological stimulus, effects of PKC/PKG inhibitors on UTP-induced mucin secretion were investigated. NHBE cells were preincubated with various inhibitors for 15 min and then exposed to UTP (100 μM) plus the inhibitor for 2 h. The secreted mucin was measured by ELISA. […] Apparently, mucin secretion in NHBE cells may be regulated by a signaling mechanism involving both PKC and PKG.
Peptide Blocking Studies—NHBE cells were preincubated with either the MANS or the RNS peptide (1-100 μM) for 15 min, and then PMA (100 nM)+8-Br-cGMP (1 μM) or UTP (100 μM) was added, and cells were incubated for an additional 15 min or 2 h. respectively. Mucin secretion was measured by ELISA and experimental results are designated as Results-I-2B-1 and Results-I-2B-2, as follows.
PP2A is an essential component of the mucin secretory pathway. NHBE cells were preincubated with the indicated concentration of fostriecin, okadaic acid (500 nM), or medium alone for 15 min and then stimulated with PMA (100 nM)+8-Br-cGMP (1 μM) for 15 min or with UTP (100 μM) for 2 h. Secreted mucin was measured by ELISA. […] Thus, dephosphorylation of MARCKS by a PKG-activated PP2A appears to be an essential component of the signaling pathway leading to mucin granule exocytosis.
Measurement of Mucin Secretion by ELISA—Before collection of “base line” and “test” mucin samples, the accumulated mucus at the apical surface of the cells was removed by washing with phosphate-buffered saline, pH 7.2. To collect the base-line secretion, cells were incubated with medium alone, and secreted mucin in the apical medium was collected and reserved. Cells were rested for 24 h and then exposed to medium containing the selected stimulatory and/or inhibitory reagents (or appropriate controls), after which secreted mucin was collected and reserved as the test sample. Incubation times for the base line and the test were the same but varied depending on the test reagent utilized. Both base line and test secretions were analyzed by ELISA using an antibody capture method as known in the art. See, e.g., Harlow et al., Antibodies: A Laboratory Manual, pp. 570-573, Cold Spring Harbor Laboratory, Cold Spring Harbor, N.Y. (1988). The primary antibody for this assay was 17Q2 (Babco, Richmond, Calif.), a monoclonal antibody that reacts specifically with a carbohydrate epitope on human airway mucins. The ratio of test/base-line mucin, which is similar to a “secretory index”, was used to quantify mucin secretion, allowing each culture dish to serve as its own control and thus, minimizing deviation caused by variability among culture wells. Wright et al., Am. J. Physiol. 271, L854-L861 (1996). Levels of mucin secretion were reported as percentage of the medium control.
These experiments were carried out similarly to those described in Example 7. To test for stimulated secretion, the cells were exposed apically and basolaterally to uridine 5′-triphosphate (UTP) at a concentration of 0.1 mM in media. Cells were pre-incubated for 15 minutes with the MANS peptide and test cultures were then co-incubated with the MANS peptide and UTP for 45 minutes.
NHBE cells were pre-incubated with okadaic acid (500 nM) for 15 min at 37° C./5% CO2, then stimulated with PMA (100 nM)+8-Br-cGMP (1 μM) for 15 min, or with UTP (0.1 mM) for 2 hours. Secreted mucin in the apical medium was collected and assayed by ELISA. […]

CCCCCCCCCCCCCC(=O)NCC(=O)N[C@@H](C)C(=O)N[C@@H](CCC(N)=O)C(=O)N[C@@H](Cc1ccccc1)C(=O)N[C@@H](CO)C(=O)N[C@@H](CCCCN)C(=O)N[C@H](C(=O)N[C@@H](C)C(=O)N[C@@H](C)C(=O)N[C@@H](CCCCN)C(=O)NCC(=O)N[C@@H](CCC(=O)O)C(=O)N[C@@H](C)C(=O)N[C@@H](C)C(=O)N[C@@H](C)C(=O)N[C@@H](CCC(=O)O)C(=O)N[C@@H](CCCNC(=N)N)C(=O)N1CCC[C@H]1C(=O)NCC(=O)N[C@@H](CCC(=O)O)C(=O)N[C@@H](C)C(=O)N[C@@H](C)C(=O)N[C@H](C(=O)N[C@@H](C)C(=O)O)C(C)C)[C@@H](C)O [MANS peptide] (Myristoyl-GAQFSKTAAKGEAAAERPGEAAVA-OH; C-terminus assumed)
% Inhibition Mucin [1]: 81.5% | Relative mucin secretion level referenced to stimulated level (M-3A-3) as 100% ([2]; peptide 1 μM): 90% | Mucin secretion as % of control ([2]; peptide 1 μM): 188% | Mucin secretion level relative to media control ([2]; peptide 1 μM): 171% | Relative mucin secretion level referenced to stimulated level (M-3A-3) as 100% ([2]; peptide 10 μM): 61% | Mucin secretion as % of control ([2]; peptide 10 μM): 129% | Mucin secretion level relative to media control ([2]; peptide 10 μM): 117% | Relative mucin secretion level referenced to stimulated level (M-3A-3) as 100% ([2]; peptide 100 μM): 16% | Mucin secretion as % of control ([2]; peptide 100 μM): 35% | Mucin secretion level relative to media control ([2]; peptide 100 μM): 29% and 30% | Mucin secretion as % of the level observed with 0.1 mM UTP absent MANS peptide ([3]; peptide 1 μM): about 90% | Mucin secretion, % of control levels ([3]; peptide 1 μM): 146% | Mucin secretion as percent of control ([3]; peptide 1 μM): 143% | Mucin secretion as % of the level observed with 0.1 mM UTP absent MANS peptide ([3]; peptide 10 μM): about 80% | Mucin secretion, % of control levels ([3]; peptide 10 μM): 128% | Mucin secretion as % of the level observed with 0.1 mM UTP absent MANS peptide ([3]; peptide 100 μM): about 29% | Mucin secretion, % of control levels ([3]; peptide 100 μM): 46% | Mucin secretion as percent of control ([3]; peptide 100 μM): 46% | Mucin secretion as percent of control ([3]; test agent 10 μM): 125%
